Experiment [1] concerns photoreceptor cells. In words: TUNEL staining of outer nuclear layer after experimental retinal detachment. Type of experiment: in vivo, Brown Norway rats. The conditions noted are these: detached retina (left eye); 5 μl of 2 mM in DMSO subretinal; 72 hours after detachment; TUNEL-positive cells/100 cells in outer nuclear layer. The protocol:
Briefly, the retinal detachments were created in the left eyes of three Brown Norway rats, as described in Example 2, section 2.1. The detachment was located on the temporal portion of the retina, and comprised approximately one third of the total retinal area.
A first rat received the retinal detachment only. A second rat received the retinal detachment and a caspase 9 inhibitor in DMSO. Briefly, immediately after the retina was detached, 5 μl of the zLEHD.fmk (2 mM solution in DMSO) (BioVision) was injected into the subretinal space of the detached retina using a Hamilton Syringe (Hamilton Corp, Reno, Nev.). A third rat received the retinal detachment and DMSO (solvent control). Briefly, 5 μl of DMSO was injected into the subretinal space of the detached retinas as a control for the solvent in which the zLEHD.fmk was dissolved.
The rats were allowed to recover from the surgery and were returned to their cages, as per standard animal care protocols. Seventy-two hours (3 days) after creation of the detachments, the eyes were enucleated and immersion-fixed in 4% paraformaldehyde solution for 24 hours. The fixed eyes were then embedded in paraffin and sectioned for histologic analysis. […]
The number of TUNEL-positive cells/100 cells in the outer nuclear layer were counted for 3 high power fields per section for 2 separate slides.

Experiment [2] has as its system caspase 9. Briefly: Caspase 9 activity (LEHD-pNA cleavage) in detached retina after injection of inhibitor at the time of detachment. Type of experiment: in vivo, Brown-Norway rats. The following applies: 5 μl of 2 mM solution in DMSO into the subretinal space, 24 hours after retinal detachment, normalized to attached retina. As for the experimental part: Briefly, rats were anesthetized with a 50:50 mix of ketamine (100 mg/ml) and xylazine (20 mg/ml), and pupils were dilated with topical phenylephrine (2.5%) and tropicamide (1%). A sclerotomy was created approximately 2 mm posterior to the limbus with a 20-guage microvitreoretinal blade (Walcott Scientific, Marmora, N.J.), with special caution to not damage the lens. A Glaser subretinal injector (32-gauge tip; BD Ophthalmic Systems, Sarasota, Fla.) connected to a syringe filled with 10 mg/ml sodium hyaluronate (Healon®; Pharmacia and Upjohn Co., Kalamazoo, Mich.) was introduced through the sclerotomy into the vitreous cavity. The tip of the subretinal injector was introduced into the subretinal space through a peripheral retinotomy, and the sodium hyaluronate was slowly injected. The neurosensory retina was thus detached from the underlying retinal pigment epithelium. In all experiments, approximately one-third to one-half of the retina was detached. Detachments were made in the left eye, with the right eye serving as the control. […]
Caspase 9 activity was measured using a calorimetric tetrapeptide LEHD-pNA cleavage assay kit according to the manufacturer's instructions (BioVision, Mountain View, Calif.). […] Absorbance was measured at 405 nm in a microplate reader (SpectraMAX 190, Molecular Devices). […]

For experiment [3], the target named is T1, caspase 7 (Homo sapiens, UniProt P55210).
T1 sequence (P55210 24-198 limits assumed): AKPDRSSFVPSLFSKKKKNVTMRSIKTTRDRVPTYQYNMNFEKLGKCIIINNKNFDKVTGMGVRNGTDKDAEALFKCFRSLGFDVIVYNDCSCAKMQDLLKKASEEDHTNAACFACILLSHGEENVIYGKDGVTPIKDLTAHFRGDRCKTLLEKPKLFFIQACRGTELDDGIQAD
T1 sequence (P55210 207-303 limits assumed): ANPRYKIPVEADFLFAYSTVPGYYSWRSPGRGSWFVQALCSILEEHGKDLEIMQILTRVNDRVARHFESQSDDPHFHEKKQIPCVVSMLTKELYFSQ
The conditions noted are these: cited from earlier work.

Experiment [4] concerns the target T2, caspase 3 (Homo sapiens, UniProt P42574).
T2 sequence (P42574 29-175 limits assumed): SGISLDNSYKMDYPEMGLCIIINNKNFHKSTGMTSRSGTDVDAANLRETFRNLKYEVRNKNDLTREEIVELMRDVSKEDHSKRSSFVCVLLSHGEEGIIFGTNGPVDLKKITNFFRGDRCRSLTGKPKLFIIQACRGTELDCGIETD
T2 sequence (P42574 176-277 limits assumed): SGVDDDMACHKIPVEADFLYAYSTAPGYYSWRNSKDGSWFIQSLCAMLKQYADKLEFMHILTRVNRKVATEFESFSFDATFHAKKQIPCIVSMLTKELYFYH
The conditions noted are these: cited from earlier work.

The target of experiment [5] is T3, caspase 4 (Homo sapiens, UniProt P49662).
T3 sequence (P49662 81-270 limits assumed): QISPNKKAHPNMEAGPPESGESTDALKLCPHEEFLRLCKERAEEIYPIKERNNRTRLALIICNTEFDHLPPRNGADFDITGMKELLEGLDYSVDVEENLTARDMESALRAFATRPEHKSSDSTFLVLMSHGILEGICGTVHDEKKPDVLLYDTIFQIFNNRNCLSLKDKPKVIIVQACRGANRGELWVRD
T3 sequence (P49662 290-377 limits assumed): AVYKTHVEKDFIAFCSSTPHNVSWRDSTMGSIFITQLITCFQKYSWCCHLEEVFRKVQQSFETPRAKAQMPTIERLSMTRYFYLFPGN
The conditions noted are these: cited from earlier work.

Experiment [6] deals with T4, caspase 1 (Homo sapiens, UniProt P29466).
T4 sequence (P29466 120-297 limits assumed): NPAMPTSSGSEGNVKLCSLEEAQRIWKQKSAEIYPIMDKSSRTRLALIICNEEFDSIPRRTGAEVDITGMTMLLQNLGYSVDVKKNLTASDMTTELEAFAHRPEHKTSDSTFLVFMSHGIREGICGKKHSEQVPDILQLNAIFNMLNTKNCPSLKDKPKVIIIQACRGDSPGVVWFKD
T4 sequence (P29466 317-404 limits assumed): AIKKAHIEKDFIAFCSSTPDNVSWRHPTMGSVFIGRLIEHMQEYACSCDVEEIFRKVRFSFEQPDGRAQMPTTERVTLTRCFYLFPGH
The conditions noted are these: cited from earlier work.

Results on 2 substances are retold here after patent US7811832B2, “Methods for preserving the viability of photoreceptor cells by anti-FAS-ligand/anti-FAS-receptor antibodies” (Massachusetts Eye and Ear Infirmary, priority 2002, dated 2010).

For “z-Leu-Glu-His-Asp-fluoromethylketone [zLEHD.fmk]”, the “% TUNEL positive cells” value in experiment [1] is 4.6% TUNEL positive. Moreover, in experiment [2], the “caspase 9 activity, % of the control level” value is recorded as “approximately 50%”.

Ac-Tyr-Val-Ala-Asp-aldehyde: the Ki – broadly, a dissociation constant, usually derived from enzyme kinetics or from competition with a known ligand – is not below 50000 nM in experiment [3], not below 50000 nM in experiment [4], 10 nM in experiment [5] and 10 nM in experiment [6].
